Reference: patent US5840910A, “Pyridine derivatives having anti-ulcerative activity” (Esai Co., Ltd., priority 1986, dated 1998)
“Also recorded” adds a separate entry of the source. Counter-ions that a name gives are not always drawn.

Tests used:
H^+ -K^+ ATPase = molecular target: T1, H^+ -K^+ ATPase (Sus scrofa, UniProt P19156); assay: Inhibition against the activity of H^+ -K^+ ATPase; format: biochemical, pig; details: for IC50: 40 mM Tris-HCl pH 7.40, 37° C., 30 minutes incubation
T1 construct: Prepared from the fundic-glands of a fresh mucous membrane of a pig stomach; from tissue; host or cells: pig stomach, fundic glands of fresh mucous membrane (modified method of Saccomani et al., 1977)
Protocol: Prepared from the fundic-glands of a fresh mucous membrane of a pig stomach according to a modified method of Saccomani al. (see Biochem. and Biophys. Acta, 464; 313 (1977)). The compound of the present invention was incubated at various concentration in a 40 mM Tris-HCl buffer solution having a pH of 7.40 together with H^+ -K^+ ATPase and 10 μg/ml of a protein at 37° C. for 30 minutes, followed by the addition of 15 mM KCl. After 10 minutes, the ATPase reaction was initiated by the addition of 3 mM of MgCl2 and ATP. After 10 minutes, the amount of the released inorganic phosphoric acid was determined according to the method of Yoda and Hokin (see Biochem. Biophys. Res. Com., 40, 880 (1970)). The test compound was used as a solution in methanol. The inhibitory effect was determined by subtracting the amount of the released inorganic acid observed with respect to the case wherein a solution of a test compound was added from that with respect to the control wherein only a solvent was added to determine a difference and dividing this difference by the latter amount and shown by percentage.

[1] = Toxicological influence, oral, one week, beagle dogs; format: in vivo; details: 10 mg/kg per day for one week
[2] = tested on: histamine-stimulated gastric acid secretion; assay: Inhibitory effect on histamine-stimulated gastric acid secretion of chronic gastric fistula dogs; format: in vivo, dog; details: for ED50: Canis lupus familiaris, 1 h, intraduodenal, histamine-stimulated, read-out: ID 50, calculated from the dose-inhibition curve
Protocol: Chronic gastric fistula dogs were used. Gastric acid secretion of each dog was stimulated by infusing 100 micron grams per kg per hour of histamine. After one hour of histamine infusion, each of the test compounds was administered intraduodenally to each dog, and after one hour of administration, the amount of gastric acid secretion of each test dog was determined. Results wore compared with the control group to which no test compound had been administered and are expressed in terms of percent inhibition.

[3] = Toxicological influence, oral, one week, rats; format: in vivo; details: rats (printed rate), 50 mg/kg per day for one week
[4] = tested on: pentagastrin-stimulated gastric acid secretion; assay: Pentagastrin-stimulated gastric acid secretion and its recovery in chronic gastric fistula dogs; format: in vivo, dog; details: for Time required for the acid secretion to recover: 4 mg per kg intraduodenal; for Gastric acid secretion, percent of the control response, 1 hr: 1 hr after 4 mg per kg intraduodenal; for Gastric acid secretion, percent of the control response, 24 hr: 24 hr after 4 mg per kg intraduodenal; for Gastric acid secretion, percent of the control response, 48 hr: 48 hr after 4 mg per kg intraduodenal; for Inhibition of pentagastrin-stimulated gastric acid secretion (in words): within one hour from intraduodenal administration, 4 mg per kg
Protocol: Chronic gastric fistula dogs were used. The test compound was intraduodenally administered to each dog in an amount of 4 mg per kg. In 1, 24, 48 and 72 hours, respectively, from the time of administration, pentagastrin (6 micron grams per kg) was injected intramuscularly into the dog. Gastric acid secretion, determined and recovery thereof, was determined in terms of percent of the control response.

T1 sequence (P19156 2-1034 limits assumed): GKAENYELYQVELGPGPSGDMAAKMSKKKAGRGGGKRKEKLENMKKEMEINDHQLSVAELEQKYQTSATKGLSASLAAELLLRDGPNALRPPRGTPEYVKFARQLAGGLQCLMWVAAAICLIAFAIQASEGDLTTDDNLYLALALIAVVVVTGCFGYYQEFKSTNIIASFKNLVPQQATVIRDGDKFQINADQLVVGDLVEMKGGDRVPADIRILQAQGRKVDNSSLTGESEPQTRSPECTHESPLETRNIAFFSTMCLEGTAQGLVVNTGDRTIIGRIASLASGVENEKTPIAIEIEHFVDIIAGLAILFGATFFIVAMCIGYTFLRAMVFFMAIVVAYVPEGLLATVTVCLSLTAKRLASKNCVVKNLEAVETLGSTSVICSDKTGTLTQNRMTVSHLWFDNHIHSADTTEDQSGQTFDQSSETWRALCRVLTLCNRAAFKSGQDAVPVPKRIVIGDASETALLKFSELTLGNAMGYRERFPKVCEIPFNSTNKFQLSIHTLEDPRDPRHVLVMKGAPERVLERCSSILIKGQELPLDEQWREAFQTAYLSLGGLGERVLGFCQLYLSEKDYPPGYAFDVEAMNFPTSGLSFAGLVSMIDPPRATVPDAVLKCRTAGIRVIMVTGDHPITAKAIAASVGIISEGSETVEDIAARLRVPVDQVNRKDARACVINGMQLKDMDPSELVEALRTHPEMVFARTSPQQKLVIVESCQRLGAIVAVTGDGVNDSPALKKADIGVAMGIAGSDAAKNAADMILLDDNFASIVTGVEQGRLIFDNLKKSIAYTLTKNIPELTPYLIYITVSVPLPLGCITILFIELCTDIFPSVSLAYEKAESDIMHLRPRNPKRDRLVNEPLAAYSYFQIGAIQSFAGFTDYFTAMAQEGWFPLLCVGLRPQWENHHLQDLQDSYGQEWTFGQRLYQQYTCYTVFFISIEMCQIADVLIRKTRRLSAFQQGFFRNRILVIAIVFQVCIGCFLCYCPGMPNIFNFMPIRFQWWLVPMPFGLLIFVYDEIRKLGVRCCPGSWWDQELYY
T1 sequence (P18434 whole entry partner): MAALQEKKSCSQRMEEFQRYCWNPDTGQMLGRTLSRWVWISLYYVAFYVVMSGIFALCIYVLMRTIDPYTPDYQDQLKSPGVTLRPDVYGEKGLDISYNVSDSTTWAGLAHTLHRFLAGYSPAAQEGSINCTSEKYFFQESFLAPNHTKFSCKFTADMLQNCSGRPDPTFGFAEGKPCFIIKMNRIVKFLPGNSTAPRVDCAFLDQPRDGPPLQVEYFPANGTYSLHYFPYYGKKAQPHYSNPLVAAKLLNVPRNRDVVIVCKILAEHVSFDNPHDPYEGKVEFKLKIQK

Q: For `Cc1c(OCCOCc2ccccc2)ccnc1C[S+]([O-])c1nc2ccccc2[nH]1` (stereo not drawn) [Compound 1], which IC50 (H^+ -K^+ ATPase) is on record?
A: 0.92 µM

Q: For `Cc1c(OCCN2CCCC2=O)ccnc1C[S+]([O-])c1nc2cc(C(F)(F)F)ccc2[nH]1` (stereo not drawn) [Compound 16], which IC50 (H^+ -K^+ ATPase) is on record?
A: 1.7 µM

Q: With `COCCCOc1ccnc(C[S+]([O-])c2nc3ccccc3[nH]2)c1C` (stereo not drawn) [Compound 19, Sodium Salt of 2-[{4-(3-Methoxypropoxy)-3-Methylpyridine-2-Yl}Methylsulfinyl]-1H-Benzimidazole] as the compound, how does the Toxicological influence [1] read?
A: No toxicological influence has been observed

Q: And the “% Inhibition of acid output” value ([2]; 31.25 μg/Kg intraduodenal)?
A: 34.4%

Q: And the “% Inhibition of acid output” value ([2]; 62.5 μg/Kg intraduodenal)?
A: 50.1%

Q: What about the “% Inhibition of acid output” value ([2]; 125 μg/Kg intraduodenal) of the same compound?
A: 67.7%

Q: And the “% Inhibition of acid output” value ([2]; 250 μg/Kg intraduodenal)?
A: 87.4%

Q: And the “% Inhibition of acid output” value ([2]; 500 μg/Kg intraduodenal)?
A: 100.0%

Q: And the ED50 [2]?
A: 0.0599 mg/kg

Q: And the “Potency compared with Omeprazole, inhibition of gastric acid secretion” value ([2]; versus Omeprazole)?
A: two times more potent; also recorded: more potent inhibitory activity on gastric acid secretion as compared with Omeprazole

Q: And the Toxicological influence [3]?
A: No toxicological influence has been observed

Q: What about the “Inhibitory effect on the activity of H^+ -K^+ ATPase (in words)” value (H^+ -K^+ ATPase) of the same compound?
A: significant inhibitory effect

Q: And the IC50 (H^+ -K^+ ATPase)?
A: 1.7 µM

Q: What about the “Time required for the acid secretion to recover” value ([4]; pentagastrin) of the same compound?
A: 48 h

Q: What about the “Gastric acid secretion, percent of the control response, 1 hr” value ([4]; pentagastrin) of the same compound?
A: 0%

Q: What about the “Gastric acid secretion, percent of the control response, 24 hr” value ([4]; pentagastrin) of the same compound?
A: 61.9%

Q: And the “Gastric acid secretion, percent of the control response, 48 hr” value ([4]; pentagastrin)?
A: 121.5%

Q: And the “Recovery of gastric acid secretion (in words)” value ([4]; dog, in vivo)?
A: excellent gastric acid secretion recovery

Q: And the “Inhibition of pentagastrin-stimulated gastric acid secretion (in words)” value [4]?
A: completely inhibited

Q: For `CSCCOc1ccnc(C[S+]([O-])c2nc3ccccc3[nH]2)c1C` (stereo not drawn) [Compound 20], which IC50 (H^+ -K^+ ATPase) is on record?
A: 2.3 µM

Q: Which IC50 (H^+ -K^+ ATPase) does the source give for `COc1ccc2[nH]c([S+]([O-])Cc3nccc(OCCN4CCCC4=O)c3C)nc2c1` (stereo not drawn) [Compound 9] here?
A: 13 µM

Q: For `COc1ccc2[nH]c([S+]([O-])Cc3nccc(OCCOCc4ccccc4)c3C)nc2c1` (stereo not drawn) [Compound 2], which IC50 (H^+ -K^+ ATPase) is on record?
A: 1.4 µM

Q: For `Cc1c(OCCOCc2ccccn2)ccnc1C[S+]([O-])c1nc2ccccc2[nH]1` (stereo not drawn) [Compound 8], which IC50 (H^+ -K^+ ATPase) is on record?
A: 1.2 µM

Q: For `COCCOCCOc1ccnc(C[S+]([O-])c2nc3ccccc3[nH]2)c1C` (stereo not drawn) [Compound 18], which IC50 (H^+ -K^+ ATPase) is on record?
A: 3.3 µM

Q: For `COc1ccc2[nH]c([S+]([O-])Cc3ncc(C)c(OC)c3C)nc2c1` (stereo not drawn) [Omeprazole, reference compound], which “% Inhibition of acid output” value ([2]; 62.5 μg/Kg intraduodenal) is on record?
A: 41.1%

Q: What about the “% Inhibition of acid output” value ([2]; 125 μg/Kg intraduodenal) of the same compound?
A: 48.6%

Q: What about the “% Inhibition of acid output” value ([2]; 250 μg/Kg intraduodenal) of the same compound?
A: 62.1%

Q: What about the “% Inhibition of acid output” value ([2]; 500 μg/Kg intraduodenal) of the same compound?
A: 91.2%

Q: And the “% Inhibition of acid output” value ([2]; 1000 μg/Kg intraduodenal)?
A: 100.0%

Q: What about the ED50 [2] of the same compound?
A: 0.112 mg/kg

Q: What about the “Time required for the acid secretion to recover” value ([4]; pentagastrin) of the same compound?
A: 72 h

Q: What about the “Gastric acid secretion, percent of the control response, 1 hr” value ([4]; pentagastrin) of the same compound?
A: 0.3%

Q: And the “Gastric acid secretion, percent of the control response, 24 hr” value ([4]; pentagastrin)?
A: 32.3%

Q: And the “Gastric acid secretion, percent of the control response, 48 hr” value ([4]; pentagastrin)?
A: 69.1%

Q: And the “Gastric acid secretion, percent of the control response, 72 hr” value ([4]; 72 hr after 4 mg per kg intraduodenal, pentagastrin)?
A: 108.4%

Q: What about the “Inhibition of pentagastrin-stimulated gastric acid secretion (in words)” value [4] of the same compound?
A: completely inhibited

Q: For `COc1ccc2[nH]c([S+]([O-])Cc3nccc(OCCO)c3C)nc2c1` (stereo not drawn) [Compound 17], which IC50 (H^+ -K^+ ATPase) is on record?
A: 3.5 µM

Q: Which IC50 (H^+ -K^+ ATPase) does the source give for `COCCOCCOc1ccnc(C[S+]([O-])c2nc3cc(OC)ccc3[nH]2)c1C` (stereo not drawn) [Compound 7] here?
A: 1.7 µM

Q: Which IC50 (H^+ -K^+ ATPase) does the source give for `Cc1c(OCCOCCOCc2ccccc2)ccnc1C[S+]([O-])c1nc2ccccc2[nH]1` (stereo not drawn) [Compound 12] here?
A: 2.6 µM

Q: For `Cc1c(OCCOc2ccccc2)ccnc1C[S+]([O-])c1nc2ccccc2[nH]1` (stereo not drawn) [Compound 21], which IC50 (H^+ -K^+ ATPase) is on record?
A: 1.3 µM

Q: With `Cc1c(OCCOCCOCc2ccccc2)ccnc1C[S+]([O-])c1nc2cc(C(F)(F)F)ccc2[nH]1` (stereo not drawn) [Compound 13] as the compound, how does the IC50 (H^+ -K^+ ATPase) read?
A: 0.63 µM

Q: With `Cc1c(OCCCO)ccnc1C[S+]([O-])c1nc2ccccc2[nH]1` (stereo not drawn) [Compound 22] as the compound, how does the IC50 (H^+ -K^+ ATPase) read?
A: 1.9 µM

Q: Which IC50 (H^+ -K^+ ATPase) does the source give for `Cc1c(OCCOCCCl)ccnc1C[S+]([O-])c1nc2ccccc2[nH]1` (stereo not drawn) [Compound 23] here?
A: 1.4 µM

Q: With `COc1ccc2[nH]c([S+]([O-])Cc3nccc(OCCN4C(=O)CCC4=O)c3C)nc2c1` (stereo not drawn) [Compound 14] as the compound, how does the IC50 (H^+ -K^+ ATPase) read?
A: 10 µM

Q: For `Cc1c(OCCN2C(=O)CCC2=O)ccnc1C[S+]([O-])c1nc2cc(C(F)(F)F)ccc2[nH]1` (stereo not drawn) [Compound 15], which IC50 (H^+ -K^+ ATPase) is on record?
A: 0.072 µM

Q: For `COc1ccc2[nH]c([S+]([O-])Cc3nccc(OCCOCCOCc4ccccc4)c3C)nc2c1` (stereo not drawn) [Compound 11], which IC50 (H^+ -K^+ ATPase) is on record?
A: 4.2 µM

Q: With `Cc1c(OCCOCc2ccccc2)ccnc1C[S+]([O-])c1nc2cc(C(F)(F)F)ccc2[nH]1` (stereo not drawn) [Compound 3] as the compound, how does the IC50 (H^+ -K^+ ATPase) read?
A: 1 µM

Q: Which IC50 (H^+ -K^+ ATPase) does the source give for `COCCOCCOc1ccnc(C[S+]([O-])c2nc3cc(C(F)(F)F)ccc3[nH]2)c1C` (stereo not drawn) [Compound 6] here?
A: 0.55 µM

Q: For `Cc1c(OCCN2C(=O)CCC2=O)ccnc1C[S+]([O-])c1nc2ccccc2[nH]1` (stereo not drawn) [Compound 4], which IC50 (H^+ -K^+ ATPase) is on record?
A: 11 µM

Q: For `Cc1c(OCCN2CCCC2=O)ccnc1C[S+]([O-])c1nc2ccccc2[nH]1` (stereo not drawn) [Compound 5], which IC50 (H^+ -K^+ ATPase) is on record?
A: 2.4 µM

Q: Which IC50 (H^+ -K^+ ATPase) does the source give for `Cc1c(OCCO)ccnc1C[S+]([O-])c1nc2ccccc2[nH]1` (stereo not drawn) [Compound 10] here?
A: 1.9 µM
